Test results taken from patent US8455469B2, “Use of norgestimate as a selective inhibitor of TRPC3, TRPC6 and TRPC7 ion channels” (Sanofi, priority 2007, dated 2013).

Legend:
TRPC5 [1] = molecular target: T1, TRPC5 (Homo sapiens, UniProt Q9UL62); assay: Whole-cell patch clamp, AlF4- activated TRPC5 HEK293 cells; assay type: cell-based; conditions: 10 μM 2-APB, used for background calculation
T1 construct: expressed in transfected cells; host or cells: HEK293 FITR (inducible expression)
T1 sequence (Q9UL62 1-973): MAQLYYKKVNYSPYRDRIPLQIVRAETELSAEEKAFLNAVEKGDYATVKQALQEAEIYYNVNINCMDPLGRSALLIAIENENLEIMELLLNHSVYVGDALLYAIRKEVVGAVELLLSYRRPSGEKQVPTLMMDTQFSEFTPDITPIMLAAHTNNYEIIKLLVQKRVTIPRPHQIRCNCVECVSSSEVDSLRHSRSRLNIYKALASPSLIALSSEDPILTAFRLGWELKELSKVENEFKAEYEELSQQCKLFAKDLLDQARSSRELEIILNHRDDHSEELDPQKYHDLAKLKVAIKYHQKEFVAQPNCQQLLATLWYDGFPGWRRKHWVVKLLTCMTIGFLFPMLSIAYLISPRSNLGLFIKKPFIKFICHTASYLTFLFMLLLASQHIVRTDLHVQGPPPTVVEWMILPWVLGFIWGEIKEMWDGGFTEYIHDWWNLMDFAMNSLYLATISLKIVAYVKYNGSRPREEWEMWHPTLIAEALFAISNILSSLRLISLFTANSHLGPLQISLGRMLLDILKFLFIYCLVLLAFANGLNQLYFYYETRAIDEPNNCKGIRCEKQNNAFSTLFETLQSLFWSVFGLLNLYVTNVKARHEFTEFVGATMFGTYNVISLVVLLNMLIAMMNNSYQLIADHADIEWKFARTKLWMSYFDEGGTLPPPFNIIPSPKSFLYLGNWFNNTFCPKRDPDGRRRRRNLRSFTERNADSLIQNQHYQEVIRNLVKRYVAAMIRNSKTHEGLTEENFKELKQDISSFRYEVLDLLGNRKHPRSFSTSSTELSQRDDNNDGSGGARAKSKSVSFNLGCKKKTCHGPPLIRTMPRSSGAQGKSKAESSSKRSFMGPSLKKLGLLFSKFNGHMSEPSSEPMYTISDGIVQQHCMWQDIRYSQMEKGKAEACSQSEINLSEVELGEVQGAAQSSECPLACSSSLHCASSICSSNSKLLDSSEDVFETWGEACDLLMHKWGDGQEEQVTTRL
Description: Channels were indirectly excited with the same stimulus for better comparability of the norgestimate effect. Aluminium tetrafluoride (AIF^4−) applied intracellularly via the patch pipette activates G-proteins by mimicking GTP (Sternweis & Gilman, 1982; Bigay et al., 1987).
Since these channels are potentiated by micromolar La^3+ concentrations (Jung et al., 2003), 2-aminoethoxydiphenyl borate (2-APB), a characterized TRPC5 blocker (Xu et al., 2005) was used instead.
(§1) Effect of 10 μM norgestimate (NG) on whole-cell currents evoked by AlF4^− infusion into induced TRPC6— (A) and TRPC5 HEK 293 (B) cells. Whole cell currents recorded at −70 mV (left panels) and the corresponding current-voltage (I-V) relationships are shown (right panels). […] The curves were obtained during voltage ramps from −100 to +80 mV. (C) Statistical analysis of the norgestimate effect on TRPC5— and TRPC6-mediated currents.

TRPC5 [2] = molecular target: T1, TRPC5; conditions: micromolar concentrations (Jung et al., 2003); cited from earlier work
TRPC6 = molecular target: T2, TRPC6 (Homo sapiens, UniProt Q9Y210); assay: Whole-cell patch clamp, AlF4- activated TRPC6 HEK293 cells; assay type: cell-based; conditions: 10 μM La3+, used for background calculation
T2 construct: expressed in transfected cells; host or cells: HEK293 (inducible expression)
T2 sequence (Q9Y210 1-931): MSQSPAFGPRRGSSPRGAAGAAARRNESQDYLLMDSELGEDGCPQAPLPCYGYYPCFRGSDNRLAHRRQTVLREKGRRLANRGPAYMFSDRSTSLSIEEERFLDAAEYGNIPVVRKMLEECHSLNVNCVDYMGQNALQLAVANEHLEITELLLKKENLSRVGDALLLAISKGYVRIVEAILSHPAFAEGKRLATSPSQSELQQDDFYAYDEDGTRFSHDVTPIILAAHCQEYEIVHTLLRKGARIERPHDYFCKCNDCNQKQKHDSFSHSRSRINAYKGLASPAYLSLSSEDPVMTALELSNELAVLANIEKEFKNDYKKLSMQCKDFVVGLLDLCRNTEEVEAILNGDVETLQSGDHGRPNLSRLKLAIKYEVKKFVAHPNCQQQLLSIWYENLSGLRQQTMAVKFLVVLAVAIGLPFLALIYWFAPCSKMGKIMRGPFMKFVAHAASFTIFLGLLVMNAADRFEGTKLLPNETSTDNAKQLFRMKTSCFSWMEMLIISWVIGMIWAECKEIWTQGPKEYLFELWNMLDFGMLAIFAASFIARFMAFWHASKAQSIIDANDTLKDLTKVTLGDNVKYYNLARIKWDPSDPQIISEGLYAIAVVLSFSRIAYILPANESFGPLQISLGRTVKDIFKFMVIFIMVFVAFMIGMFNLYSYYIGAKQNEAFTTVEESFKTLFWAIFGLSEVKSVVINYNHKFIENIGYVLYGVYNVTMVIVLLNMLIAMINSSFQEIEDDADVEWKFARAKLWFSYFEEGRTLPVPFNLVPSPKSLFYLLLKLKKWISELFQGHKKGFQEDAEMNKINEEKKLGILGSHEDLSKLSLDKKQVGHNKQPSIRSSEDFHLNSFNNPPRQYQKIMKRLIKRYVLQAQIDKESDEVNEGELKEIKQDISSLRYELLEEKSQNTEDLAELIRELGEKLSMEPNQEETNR
Text: Inhibition of TRPC6- and TRPC5-mediated Ca^2+ -influx by norgestimate monitored in fluorometric experiments with cell populations was validated and compared with whole-cell patch clamp recordings of single cells. Channels were indirectly excited with the same stimulus for better comparability of the norgestimate effect. Aluminium tetrafluoride (AIF^4−) applied intracellularly via the patch pipette activates G-proteins by mimicking GTP (Sternweis & Gilman, 1982; Bigay et al., 1987). Subsequently TRPC channels are stimulated and mediate non-specific cationic currents (FIG. 3 A, B) When 10 μM norgestimate were applied to activated TRPC6 channels, 89.9 ±3.1% (n=15) of the current measured at resting membrane potential was blocked. This inhibition was reversible as current amplitude increased after norgestimate wash out (FIG. 3 A).
as §1, with “currents. 10 μM norgestimate inhibit 25.9±5.7% (n=20) of TRPC5-mediated currents and 89.9±3.1% (n=15) of TRPC6-mediated currents (P<0.001, Wilcoxon test, two-sided).” for “currents.”

block of TRPC5 channel (TRPC5 [1]) | Structure (SMILES) | effect of micromolar La3+ concentrations on TRPC5 channels (TRPC5 [2]) | block of TRPC6 current (TRPC6) | block of TRPC6 current (TRPC6; listed as La^3+)
completely and reversibly blocked | NCCOB(c1ccccc1)c1ccccc1 [2-APB, 2-aminoethoxydiphenyl borate] |  |  | 
 | [La] [lanthanum] | potentiated | complete and reversible | completely blocked
